Measured values: ChEMBL document CHEMBL5137049, “Discovery of a Novel Small-Molecule Inhibitor Disrupting TRBP-Dicer Interaction against Hepatocellular Carcinoma via the Modulation of microRNA Biogenesis” (J Med Chem, 2022)
Active and inactive are the calls of the source. The calls are words filed in the database; no cut-off is given here.

Legend:
HeLa = test: Downregulation of miR-155 expression in human HeLa cells at 10 uM incubated for 6 hrs by qRT-PCR analysis; assay type: functional
MHCC97-L [1] = test: Inhibition of cell migration in human MHCC97-L cells assessed as reduction of cell mobility at 1 to 25 uM measured at 24 hrs by well scratch method; assay type: functional, cell-based; settings: dose 1-25 µM
SK-HEP1 [2] = test: Upregulation of E-cadherin expression in human SK-HEP1 cells at 1 to 25 uM by Western blotting analysis; assay type: functional, cell-based; settings: dose 1-25 µM
SK-HEP1 [3] = test: Downregulation of N-cadherin expression in human SK-HEP1 cells at 1 to 25 uM by Western blot analysis; assay type: functional, cell-based; settings: dose 1-25 µM
SK-HEP1 [4] = test: Antitumor activity against human SK-HEP1 cells xenografted in SCID mouse assessed as reduction in number of intrahepatic migration lesions at 10 to 25 mg/kg, ip administered every 2 days for 4 weeks by hematoxyin-eosin staining based analysis; assay type: functional, organism-based; settings: dose 10-25 mg/kg
SK-HEP1 [5] = test: Upregulation of let-7 expression in human SK-HEP1 cells at 10 uM by qRT-PCR analysis; assay type: functional, cell-based
MHCC97-L [6] = test: Downregulation of miR-135 expression in human MHCC97-L cells at 10 uM by qRT-PCR analysis; assay type: functional, cell-based
HepG2 = test: Upregulation of pri-miR-122 in human HepG2 cells at 10 uM incubated for 6 hrs by qRT-PCR analysis; assay type: functional, cell-based
Homo sapiens = species on record: Homo sapiens; test: Effect on PACT-Dicer interaction (unknown origin) assessed as increase in binding of PACT to Dicer at 1 to 25 uM by Western blotting analysis; settings: dose 1-25 µM

CCOC(=O)c1nc(-c2ccc(OC)cc2)oc1C
Activity (HeLa): 60% | inhibition (MHCC97-L [1]): Active | Activity (SK-HEP1 [2]): Active | Activity (SK-HEP1 [3]): Active | Activity (SK-HEP1 [4]): Active | Activity (SK-HEP1 [5]): Active | Activity (MHCC97-L [6]): Active | Activity (HepG2): Active | Activity (Homo sapiens): Active
